From patent US20220154247A1, “ULTRASENSITIVE METHOD FOR DETECTING CELL DEATH” (priority 2019, published 2022)
“Also recorded” adds a separate entry of the source.

What was measured:
MOLM14 cells = test: Annexin V/propidium iodide labeling, flow cytometry, percentage of apoptotic cells; assay type: cell-based; conditions: MOLM14 cells treated 16 h with 0-10 μM etoposide; no plateau with the PCR method
Description: The cells are washed with PBS then resuspended in 1× binding buffer at a concentration of 1×10^6 cells/ml. 10 μl of Annexin V Pacific Blue and 10 μl of propidium iodide (Biolegend kit) are added to 200 μl of this cell suspension, which is then incubated for 15 minutes in darkness and at ambient temperature. After centrifugation at 300 g for 5 min, the supernatant is gently aspirated and 500 μl of 1× binding buffer are added.
These cells are then used in flow cytometry for determining the effect of the treatment and the number of cells in apoptosis. These cells are sorted depending on their annexin V and propidium iodide statuses in order to then carry out a PCR.
MOLM14 cells are left untreated (NT) or treated for 16 h with increasing concentrations of etoposide (0-0.62-1.25-2.5-5 or 10 μM).
The cells are labeled using the Pacific Blue™ Annexin V kit (Biolegend) according to the supplier's recommendations and then analyzed by flow cytometry (MACSQuant VYB—Miltenyi Biotec). The percentage of positive apoptotic cells (annexin V) is determined.

MDA-MB-231 cells = test: DNA fragments in the cytoplasmic fraction detected by capillary electrophoresis (fragment analyzer); assay type: cell-based; conditions: MDA-MB-231 cells treated 24 h with 50 or 100 nM staurosporine, compared to untreated cells
Description: MDA-MB-231 cells were inoculated in 6 [MUT] at an amount of 3 million cells per 35 ml of DMEM high glucose medium (10% FCS, P/S). The next day, the MDA-MB-231 cells were treated with 50 nM and 100 nM staurosporine. The medium of the 2 untreated [MUT] was changed. After 24 h of treatment, the MDA-MB-231 cells were lysed with 2 ml of lysis buffer added to the [MUT] for 15 min at ambient temperature, then 2 ml were transferred into a tube and centrifuged at 2000 g for 5 min. The supernatant was then treated with RNaseA (20 μg/ml) and then with Proteinase K (used at 100 ug/ml), and placed at 70° C. for 15 min. The lysis buffer is a mixture of 50 mM 4-(2-hydroxyethyl)-1-piperazineethanesulfonic acid, 5 mM ethylenediaminetetraacetic acid, 150 mM sodium chloride, and 50 μg/ml digitonin. 1/10 volume of sodium acetate (NaAc) (3 M, pH 5.2) was then added. DNA was precipitated with 1 volume of isopropanol. The samples were left at ambient temperature for 15 min and then centrifuged at 20 000 g for 20 min at +4° C. The supernatant was aspirated and the pellet was washed with 75% ethanol. The pellet was dried and then resuspended in 30 μl of TE at pH 8 and analyzed in a fragment analyzer.

SMILES | concentration from which the flow cytometry method (annexin V) reaches a detection plateau (MOLM14 cells) [µM] | DNA fragments, a marker of cell death, in the cytoplasmic fraction (MDA-MB-231 cells)
COc1cc([C@@H]2c3cc4c(cc3[C@@H](O[C@@H]3O[C@@H]5CO[C@@H](C)O[C@H]5[C@H](O)[C@H]3O)[C@H]3COC(=O)[C@H]23)OCO4)cc(OC)c1O [etoposide] | ≥ 2.5 | –
CN[C@@H]1C[C@H]2O[C@@](C)([C@@H]1OC)n1c3ccccc3c3c4c(c5c6ccccc6n2c5c31)C(=O)NC4 [staurosporine] | – | detected; also recorded: increase in the quantity of DNA fragments
